Results as given in the NIST ThermoML archive (doi:10.1021/je0500431).
Numbers after ± are expanded uncertainties.

Details: 293.15 K, Ring tensiometer

Row | surface tension liquid-gas [mN/m] | Compound
1 | 23.18 ± 0.35 | CCC(C)O (stereo not given) [butan-2-ol]
2 | 25.69 ± 0.46 | CCCCCO [pentan-1-ol]
3 | 23.7 ± 0.43 | CCCC(C)O (stereo not given) [pentan-2-ol]

The next lines start with the compound.

Row | Compound | surface tension liquid-gas [mN/m]
4 | CCCO [propan-1-ol] | 23.73 ± 0.37
5 | CC(C)O [propan-2-ol] | 21.3 ± 0.34

Same assay, conditions: 293.15 K; 101.33 kPa; Liquid

Row | mass density [kg/m3] | Compound
6 | 807.1 ± 0.6 | CCC(C)O (stereo not given) [butan-2-ol]
7 | 815.3 ± 1 | CCCCCO [pentan-1-ol]
8 | 809.8 ± 1 | CCCC(C)O (stereo not given) [pentan-2-ol]

More lines, now with the values behind:

Row | Compound | mass density [kg/m3]
9 | CCCO [propan-1-ol] | 803.1 ± 0.7
10 | CC(C)O [propan-2-ol] | 785.1 ± 0.7

Same assay, conditions: 298.15 K, Ring tensiometer

Row | surface tension liquid-gas [mN/m] | Compound
11 | 22.74 ± 0.34 | CCC(C)O (stereo not given) [butan-2-ol]
12 | 25.29 ± 0.45 | CCCCCO [pentan-1-ol]
13 | 23.28 ± 0.42 | CCCC(C)O (stereo not given) [pentan-2-ol]

The next lines start with the compound.

Row | Compound | surface tension liquid-gas [mN/m]
14 | CCCO [propan-1-ol] | 23.3 ± 0.37
15 | CC(C)O [propan-2-ol] | 20.95 ± 0.34

Same assay, conditions: 298.15 K; 101.33 kPa; Liquid

Row | mass density [kg/m3] | Compound
16 | 802.9 ± 0.6 | CCC(C)O (stereo not given) [butan-2-ol]
17 | 811.6 ± 1 | CCCCCO [pentan-1-ol]
18 | 805.7 ± 1 | CCCC(C)O (stereo not given) [pentan-2-ol]

The remaining lines, values behind:

Row | Compound | mass density [kg/m3]
19 | CCCO [propan-1-ol] | 799.3 ± 0.7
20 | CC(C)O [propan-2-ol] | 780.9 ± 0.8

Same assay, conditions: 303.15 K, Ring tensiometer

Row | surface tension liquid-gas [mN/m] | Compound
21 | 22.38 ± 0.34 | CCC(C)O (stereo not given) [butan-2-ol]
22 | 24.86 ± 0.44 | CCCCCO [pentan-1-ol]
23 | 22.87 ± 0.41 | CCCC(C)O (stereo not given) [pentan-2-ol]

The remaining lines, values behind:

Row | Compound | surface tension liquid-gas [mN/m]
24 | CCCO [propan-1-ol] | 22.9 ± 0.36
25 | CC(C)O [propan-2-ol] | 20.55 ± 0.33

Same assay, conditions: 308.15 K, Ring tensiometer

Row | surface tension liquid-gas [mN/m] | Compound
26 | 21.94 ± 0.33 | CCC(C)O (stereo not given) [butan-2-ol]
27 | 24.49 ± 0.44 | CCCCCO [pentan-1-ol]
28 | 22.43 ± 0.41 | CCCC(C)O (stereo not given) [pentan-2-ol]

The remaining lines, values behind:

Row | Compound | surface tension liquid-gas [mN/m]
29 | CCCO [propan-1-ol] | 22.52 ± 0.36
30 | CC(C)O [propan-2-ol] | 20.2 ± 0.33

Same assay, conditions: 313.15 K, Ring tensiometer

Row | surface tension liquid-gas [mN/m] | Compound
31 | 21.56 ± 0.33 | CCC(C)O (stereo not given) [butan-2-ol]
32 | 24.06 ± 0.43 | CCCCCO [pentan-1-ol]
33 | 22.04 ± 0.4 | CCCC(C)O (stereo not given) [pentan-2-ol]

Second part, the compound before the results:

Row | Compound | surface tension liquid-gas [mN/m]
34 | CCCO [propan-1-ol] | 22.1 ± 0.35
35 | CC(C)O [propan-2-ol] | 19.83 ± 0.32

Same assay, conditions: 318.15 K, Ring tensiometer

Row | surface tension liquid-gas [mN/m] | Compound
36 | 21.11 ± 0.32 | CCC(C)O (stereo not given) [butan-2-ol]
37 | 23.67 ± 0.42 | CCCCCO [pentan-1-ol]
38 | 21.6 ± 0.39 | CCCC(C)O (stereo not given) [pentan-2-ol]

Further lines, the compound ahead of its results:

Row | Compound | surface tension liquid-gas [mN/m]
39 | CCCO [propan-1-ol] | 21.68 ± 0.35
40 | CC(C)O [propan-2-ol] | 19.47 ± 0.32

Same assay, conditions: 318.15 K; 101.33 kPa; Liquid

Row | mass density [kg/m3] | Compound
41 | 785.5 ± 0.6 | CCC(C)O (stereo not given) [butan-2-ol]
42 | 796.6 ± 1 | CCCCCO [pentan-1-ol]
43 | 788.8 ± 1 | CCCC(C)O (stereo not given) [pentan-2-ol]

The next lines start with the compound.

Row | Compound | mass density [kg/m3]
44 | CCCO [propan-1-ol] | 783.2 ± 0.7
45 | CC(C)O [propan-2-ol] | 763.3 ± 0.8

Same assay, conditions: 323.15 K, Ring tensiometer

Row | surface tension liquid-gas [mN/m] | Compound
46 | 20.76 ± 0.32 | CCC(C)O (stereo not given) [butan-2-ol]
47 | 23.3 ± 0.42 | CCCCCO [pentan-1-ol]
48 | 21.16 ± 0.39 | CCCC(C)O (stereo not given) [pentan-2-ol]

Second part, the compound before the results:

Row | Compound | surface tension liquid-gas [mN/m]
49 | CCCO [propan-1-ol] | 21.27 ± 0.34
50 | CC(C)O [propan-2-ol] | 19.09 ± 0.31
